Reference: the CheMixHub ionic liquid set
± gives the uncertainty stated by the source.

Experiment: xn = mol fraction of the nth substance listed

CCCC[n+]1ccn(C)c1.F[B-](F)(F)F + Cc1ccccc1
viscosity [mPa·s], 101 kPa
Settings | x2 = 0.05 | x2 = 0.1 | x2 = 0.2 | x2 = 0.3 | x2 = 0.33
298.15 K | 80.4 ± 3.9 | 74.5 ± 3.6 | 59.9 ± 3 | 47.9 ± 2.5 | 44.8 ± 2.3
300.65 K | 54.8 ± 2.7 | 50.7 ± 2.5 | 39.3 ± 2 | 29.3 ± 1.6 | 27.8 ± 1.5
303.15 K | 41.3 ± 1.9 | 38.1 ± 1.7 | 29.2 ± 1.3 | 21.6 ± 1 | 20.46 ± 0.94
305.65 K | 33.3 ± 1.4 | 30.6 ± 1.3 | 23.5 ± 1 | 17.49 ± 0.76 | 16.56 ± 0.72
308.15 K | 28 ± 1.2 | 25.7 ± 1.1 | 19.89 ± 0.84 | 15 ± 0.63 | 14.18 ± 0.6
310.65 K | 24.4 ± 1 | 22.36 ± 0.94 | 17.41 ± 0.73 | 13.35 ± 0.55 | 12.59 ± 0.52
313.15 K | 21.75 ± 0.9 | 19.9 ± 0.82 | 15.63 ± 0.65 | 12.18 ± 0.5 | 11.46 ± 0.47
315.65 K | 19.74 ± 0.81 | 18.04 ± 0.74 | 14.3 ± 0.59 | 11.31 ± 0.46 | 10.62 ± 0.44
318.15 K | 18.18 ± 0.75 | 16.59 ± 0.68 | 13.26 ± 0.54 | 10.64 ± 0.43 | 9.97 ± 0.41
320.65 K | 16.93 ± 0.69 | 15.43 ± 0.63 | 12.44 ± 0.51 | 10.11 ± 0.41 | 9.46 ± 0.39
323.15 K | 15.91 ± 0.65 | 14.49 ± 0.59 | 11.76 ± 0.48 | 9.68 ± 0.39 | 9.05 ± 0.37
325.65 K | 15.07 ± 0.61 | 13.71 ± 0.56 | 11.21 ± 0.46 | 9.32 ± 0.38 | 8.7 ± 0.35
328.15 K | 14.36 ± 0.59 | 13.05 ± 0.53 | 10.74 ± 0.44 | 9.02 ± 0.37 | 8.41 ± 0.34
330.65 K | 13.75 ± 0.56 | 12.48 ± 0.51 | 10.35 ± 0.42 | 8.77 ± 0.36 | 8.17 ± 0.33
333.15 K | 13.23 ± 0.54 | 12 ± 0.49 | 10 ± 0.41 | 8.55 ± 0.35 | 7.96 ± 0.32
335.65 K | 12.77 ± 0.52 | 11.58 ± 0.47 | 9.7 ± 0.39 | 8.36 ± 0.34 | 7.77 ± 0.32
338.15 K | 12.37 ± 0.5 | 11.21 ± 0.46 | 9.44 ± 0.38 | 8.19 ± 0.33 | 7.61 ± 0.31

CCCC[n+]1ccn(C)c1.F[B-](F)(F)F + ClC(Cl)Cl
298.15 K, 101 kPa, x2 = 0
Settings | electrical conductivity [S/m] | viscosity [mPa·s]
– | 0.194 ± 0.023 | 116 ± 40

CCCC[n+]1ccn(C)c1.F[B-](F)(F)F + ClCCl
298.15 K, 101 kPa, x2 = 0
Settings | electrical conductivity [S/m] | viscosity [mPa·s]
– | 0.194 ± 0.023 | 116 ± 40

CCCC[n+]1ccn(C)c1.F[B-](F)(F)F + NC(N)=O + O
Settings | viscosity [mPa·s]
298.15 K, 100 kPa, x2 = 0, x3 = 0.9487 | 1.99 ± 0.1
